Data as given in article PMC3808535, “Pannexin1 Channel Proteins in the Zebrafish Retina Have Shared and Unique Properties” (PLoS ONE, 2013).
Substitutions are numbered along the chain they refer to.

Experiments:
Assay in all cases: ethidium dye uptake in transfected N2a cells
Format in all cases: cell-based
[1] = target: T1, drPanx1a (Danio rerio, UniProt A0A8M1PG01)
T1 construct: gene panx1a; full length aa 1-417 (natural Cys at position 76), C-terminal EYFP fusion (pEYFP-N1), transient in mouse N2a cells
T1 sequence (A0A8M1PG01 1-417): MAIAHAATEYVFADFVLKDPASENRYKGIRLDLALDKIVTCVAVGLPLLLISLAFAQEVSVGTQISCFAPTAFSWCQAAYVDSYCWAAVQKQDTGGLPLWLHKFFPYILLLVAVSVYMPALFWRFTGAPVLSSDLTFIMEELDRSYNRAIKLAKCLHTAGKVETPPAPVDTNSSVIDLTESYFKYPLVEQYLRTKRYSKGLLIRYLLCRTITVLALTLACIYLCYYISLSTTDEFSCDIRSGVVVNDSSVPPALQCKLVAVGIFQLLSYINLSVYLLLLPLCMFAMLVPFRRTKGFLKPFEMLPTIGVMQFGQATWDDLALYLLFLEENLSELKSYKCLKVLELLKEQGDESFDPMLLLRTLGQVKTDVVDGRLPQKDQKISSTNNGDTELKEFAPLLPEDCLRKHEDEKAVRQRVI

[2] = target: T2, drPanx1b (Danio rerio, UniProt F1QSR7, R75A/H238Y); conditions: 500 uM ATP, 20 uM EtBr, 5 min, pH 7.4; endogenous Panx1 and P2X7-R in N2a host
T2 construct: gene panx1b; full length aa 1-422, C-terminal EYFP fusion (pEYFP-N1), transient in mouse N2a cells
T2 sequence (F1QSR7 1-422 R75A/H238Y): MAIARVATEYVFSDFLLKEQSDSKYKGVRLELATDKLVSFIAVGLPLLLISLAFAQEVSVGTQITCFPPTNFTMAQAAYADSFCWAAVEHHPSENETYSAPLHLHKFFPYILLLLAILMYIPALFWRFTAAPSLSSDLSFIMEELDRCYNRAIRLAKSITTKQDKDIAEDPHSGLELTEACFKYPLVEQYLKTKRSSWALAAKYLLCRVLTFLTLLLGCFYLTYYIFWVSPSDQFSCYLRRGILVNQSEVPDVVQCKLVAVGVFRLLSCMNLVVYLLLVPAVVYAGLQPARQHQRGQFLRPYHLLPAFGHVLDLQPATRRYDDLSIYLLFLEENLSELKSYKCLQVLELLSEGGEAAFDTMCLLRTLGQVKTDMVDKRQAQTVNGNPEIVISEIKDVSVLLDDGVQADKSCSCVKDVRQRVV

[3] = target: T3, drPanx1b (Danio rerio, UniProt F1QSR7, H238Y)
T3 construct: gene panx1b; full length aa 1-422, C-terminal EYFP fusion (pEYFP-N1), transient in mouse N2a cells
T3 sequence (F1QSR7 1-422 H238Y): T2 sequence (F1QSR7 1-422 R75A/H238Y) with A75R

[4] = target: T4, drPanx1a (Danio rerio, UniProt A0A8M1PG01, C76E); conditions: 3 mM ATP, 20 uM EtBr, 5 min, pH 7.4; endogenous Panx1 and P2X7-R in N2a host
T4 construct: gene panx1a; full length aa 1-417 (natural Cys at position 76), C-terminal EYFP fusion (pEYFP-N1), transient in mouse N2a cells
T4 sequence (A0A8M1PG01 1-417 C76E): T1 sequence (A0A8M1PG01 1-417) with C76E

[5] = target: T5, mPanx1 (Mus musculus, UniProt Q9JIP4); conditions: 20 uM EtBr, 5 min, pH 7.4; channel permeant dye
T5 construct: gene Panx1; full length aa 1-426, C-terminal EYFP fusion (pEYFP-N1), transient in mouse N2a cells
T5 sequence (Q9JIP4 whole entry, the tested form may be a part): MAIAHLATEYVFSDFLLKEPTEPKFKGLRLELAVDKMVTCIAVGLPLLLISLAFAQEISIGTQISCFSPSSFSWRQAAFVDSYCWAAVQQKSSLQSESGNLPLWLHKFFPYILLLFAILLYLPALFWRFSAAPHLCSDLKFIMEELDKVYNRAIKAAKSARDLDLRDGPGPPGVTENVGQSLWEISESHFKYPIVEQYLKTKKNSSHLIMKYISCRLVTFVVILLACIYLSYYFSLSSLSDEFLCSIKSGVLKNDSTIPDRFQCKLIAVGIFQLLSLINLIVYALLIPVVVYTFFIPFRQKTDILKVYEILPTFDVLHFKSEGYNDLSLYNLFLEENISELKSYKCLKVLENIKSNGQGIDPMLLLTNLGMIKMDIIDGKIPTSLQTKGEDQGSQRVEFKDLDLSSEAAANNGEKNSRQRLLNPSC

[6] = target: T6, drPanx1a (Danio rerio, UniProt A0A8M1PG01, C76A); conditions: 100 uM BBG, 20 uM EtBr, 5 min, pH 7.4; endogenous Panx1 and P2X7-R in N2a host
T6 construct: gene panx1a; full length aa 1-417 (natural Cys at position 76), C-terminal EYFP fusion (pEYFP-N1), transient in mouse N2a cells
T6 sequence (A0A8M1PG01 1-417 C76A): T1 sequence (A0A8M1PG01 1-417) with C76A

[7] = target: T7, drPanx1b (Danio rerio, UniProt F1QSR7, R75E/H238Y); conditions: 100 uM BBG, 20 uM EtBr, 5 min, pH 7.4; endogenous Panx1 and P2X7-R in N2a host
T7 construct: gene panx1b; full length aa 1-422, C-terminal EYFP fusion (pEYFP-N1), transient in mouse N2a cells
T7 sequence (F1QSR7 1-422 R75E/H238Y): T2 sequence (F1QSR7 1-422 R75A/H238Y) with A75E

[8] = target: T5, mPanx1; conditions: read-out: % inhibition at 100 uM
[9] = target: T8, drPanx1b (Danio rerio, UniProt F1QSR7, R75K/H238Y); conditions: 100 uM BBG, 20 uM EtBr, 5 min, pH 7.4; endogenous Panx1 and P2X7-R in N2a host
T8 construct: gene panx1b; full length aa 1-422, C-terminal EYFP fusion (pEYFP-N1), transient in mouse N2a cells
T8 sequence (F1QSR7 1-422 R75K/H238Y): T2 sequence (F1QSR7 1-422 R75A/H238Y) with A75K

[10] = target: T9, drPanx1a (Danio rerio, UniProt A0A8M1PG01, C76K); conditions: 100 uM BBG, 20 uM EtBr, 5 min, pH 7.4; endogenous Panx1 and P2X7-R in N2a host
T9 construct: gene panx1a; full length aa 1-417 (natural Cys at position 76), C-terminal EYFP fusion (pEYFP-N1), transient in mouse N2a cells
T9 sequence (A0A8M1PG01 1-417 C76K): T1 sequence (A0A8M1PG01 1-417) with C76K

[11] = target: T2, drPanx1b; conditions: 100 uM BBG, 20 uM EtBr, 5 min, pH 7.4; endogenous Panx1 and P2X7-R in N2a host
[12] = target: T4, drPanx1a; conditions: 100 uM BBG, 20 uM EtBr, 5 min, pH 7.4; endogenous Panx1 and P2X7-R in N2a host
[13] = target: T10, drPanx1a (Danio rerio, UniProt A0A8M1PG01, C76R); conditions: 100 uM BBG, 20 uM EtBr, 5 min, pH 7.4; endogenous Panx1 and P2X7-R in N2a host
T10 construct: gene panx1a; full length aa 1-417 (natural Cys at position 76), C-terminal EYFP fusion (pEYFP-N1), transient in mouse N2a cells
T10 sequence (A0A8M1PG01 1-417 C76R): T1 sequence (A0A8M1PG01 1-417) with C76R

[14] = target: T11, drPanx1b (Danio rerio, UniProt F1QSR7, R75C/H238Y); conditions: 100 uM BBG, 20 uM EtBr, 5 min, pH 7.4; endogenous Panx1 and P2X7-R in N2a host
T11 construct: gene panx1b; full length aa 1-422, C-terminal EYFP fusion (pEYFP-N1), transient in mouse N2a cells
T11 sequence (F1QSR7 1-422 R75C/H238Y): T2 sequence (F1QSR7 1-422 R75A/H238Y) with A75C

Nc1ncnc2c1ncn2[C@@H]1O[C@H](COP(=O)(O)OP(=O)(O)OP(=O)(O)O)[C@@H](O)[C@H]1O [ATP]
inhibition at 3000 µM ([1]; read-out: % inhibition at 3 mM): 20.2 ± 2.2%
% inhibition at 500 uM [2]: drPanx1b WT ≥ R75K ≥ R75C > R75E ≥ R75A
inhibition at 500 µM [3]: 27.3 ± 1.9%
% inhibition at 3 mM [4]: ATP: drPanx1a-C76E > C76A ≥ WT

CC[n+]1c(-c2ccccc2)c2cc(N)ccc2c2ccc(N)cc21 [Ethidium bromide]
ethidium dye uptake in transfected N2a cells [5]: EtBr uptake was significantly increased in mPanx1

CCOc1ccc(Nc2ccc(C(=C3C=CC(=[N+](CC)Cc4cccc(S(=O)(=O)[O-])c4)C=C3C)c3ccc(N(CC)Cc4cccc(S(=O)(=O)O)c4)cc3C)cc2)cc1 [brilliant blue G]
inhibition at 100 µM [1]: 33.4 ± 1.7%
% inhibition at 100 uM [6]: BBG: drPanx1a-C76R > C76K > WT ≥ C76A > C76E
% inhibition at 100 uM [7]: drPanx1b WT > R75C > R75K ≥ R75A ≥ R75E
inhibition at 100 µM [8]: 40.6 ± 1.4%
% inhibition at 100 uM [9]: drPanx1b WT > R75C > R75K ≥ R75A ≥ R75E
% inhibition at 100 uM [10]: BBG: drPanx1a-C76R > C76K > WT
% inhibition at 100 uM [11]: drPanx1b WT > R75C > R75K ≥ R75A ≥ R75E
% inhibition at 100 uM [12]: BBG: drPanx1a-C76R > C76K > WT ≥ C76A > C76E
inhibition at 100 µM [3]: 64.1 ± 1%
% inhibition at 100 uM [13]: BBG: drPanx1a-C76R > C76K > WT
% inhibition at 100 uM [14]: drPanx1b WT > R75C > R75K ≥ R75A ≥ R75E
